The values that follow come from patent US4539401A, “Pyridobenzoxazine derivatives useful as antibacterial agents” (Daiichi Seiyaku Co., Ltd., priority 1982, dated 1985).

Structures are written as SMILES. In brackets after ≈: the same amount, converted by molar mass. Counter-ions that a name gives are not always drawn. A value given as a limit tells only on which side of the number the result lay.

One series concerns B. subtilis, ATCC-6633. Kind of series: MIC, standard method of the Japan Society of Chemotherapy (Mueller-Hinton Broth medium). In kind it is cell-based. The settings on record: Bacillus subtilis, ATCC6633, 10^6 /ml of bacteria, 37° C., 18 hours. Here is the method: (§1) *Determined by the standard method of the Japan Society of Chemoterapy:
(§2) (MuellerHinton Broth medium), 10^6 /ml of bacteria were seeded and
(§3) incubated at 37° C. for 18 hours.

The next series relates to E. coli, NIHJ. Described as above. The following applies: Escherichia coli, 10^6 /ml of bacteria, 37° C., 18 hours. It counts as cell-based. Here is the method:
as §1, §2, §3

A further series relates to Ent. cloacae, 03400. Described as above. In kind it is cell-based. The settings on record: Enterobacter cloacae, 10^6 /ml of bacteria, 37° C., 18 hours. On the procedure:
as §1, §2, §3

For the next series, the system named is K. pneumoniae, type 1. The series is described as above. The following applies: Klebsiella pneumoniae, TYPE1, 10^6 /ml of bacteria, 37° C., 18 hours. It counts as cell-based. On the procedure: as §1, §2, §3
For a further series, the system named is Pr. mirabilis, IFO-3849. The description is as above. The settings on record: Proteus mirabilis, IFO3849, 10^6 /ml of bacteria, 37° C., 18 hours. In kind it is cell-based. On the procedure:
as §1, §2, §3

In another series the test system is Pr. vulgaris, 08602. Described as above. The following applies: Proteus vulgaris, 10^6 /ml of bacteria, 37° C., 18 hours. In kind it is cell-based. Here is the method:
as §1, §2, §3

For the next series, the system named is Ps. aeruginosa, 32104. The description is as above. The settings on record: Pseudomonas aeruginosa, 10^6 /ml of bacteria, 37° C., 18 hours. It counts as cell-based. Here is the method: as §1, §2, §3
A further series concerns Ps. aeruginosa, 32121. The description is as above. It counts as cell-based. The settings on record: Pseudomonas aeruginosa, 10^6 /ml of bacteria, 37° C., 18 hours. Here is the method:
as §1, §2, §3

For another series, the system named is Ps. aeruginosa, 32122. The description is as above. The settings on record: Pseudomonas aeruginosa, 10^6 /ml of bacteria, 37° C., 18 hours. In kind it is cell-based. Here is the method:
as §1, §2, §3

In a further series the test system is Ps. aeruginosa, 32233. Described as above. It counts as cell-based. The settings on record: Pseudomonas aeruginosa, 10^6 /ml of bacteria, 37° C., 18 hours. On the procedure:
as §1, §2, §3

A further series deals with Ps. aeruginosa, 32234. The series is described as above. In kind it is cell-based. The settings on record: Pseudomonas aeruginosa, 10^6 /ml of bacteria, 37° C., 18 hours. Here is the method: as §1, §2, §3
A further series concerns S. aureus, 209 P. The series is described as above. The following applies: Staphylococcus aureus, 10^6 /ml of bacteria, 37° C., 18 hours. It counts as cell-based. On the procedure:
as §1, §2, §3

The test system of the next series is S. epidermidis, 56500. Described as above. The settings on record: Staphylococcus epidermidis, 10^6 /ml of bacteria, 37° C., 18 hours. In kind it is cell-based. On the procedure: as §1, §2, §3
Another series deals with Ser. marcescens, 10104. The series is described as above. It counts as cell-based. The following applies: Serratia marcescens, 10^6 /ml of bacteria, 37° C., 18 hours. Here is the method:
as §1, §2, §3

A further series relates to Sh. flexneri, 2a, 5503. The description is as above. The settings on record: Shigella flexneri, 10^6 /ml of bacteria, 37° C., 18 hours. In kind it is cell-based. On the procedure:
as §1, §2, §3

Series [1] deals with Str. faecalis, ATCC-19433. The description is as above. In kind it is cell-based. The settings on record: Enterococcus faecalis, ATCC19433, 10^6 /ml of bacteria, 37° C., 18 hours. Here is the method: as §1, §2, §3
For a further series, the system named is Str. pyogenes, G-36. The series is described as above. In kind it is cell-based. The settings on record: Streptococcus pyogenes, G36, 10^6 /ml of bacteria, 37° C., 18 hours. On the procedure:
as §1, §2, §3

The next series deals with Gram-positive bacteria. Nature of the series: antibacterial activity, statement in words. The settings on record: from Table 1. In kind it is cell-based. On the procedure:
as §1, §2, §3

Series [2] in a line: acute toxicity (LD 50) in mice (i.v.). The following applies: mouse, in vivo, iv.
Another series relates to Pseudomonas aeruginosa. Kind of series: antibacterial activity, statement in words. In kind it is cell-based. The settings on record: from Table 1. On the procedure:
as §1, §2, §3

The MIC is the smallest concentration in the dilution series that meets the test's criterion for growth inhibition. Read a high MIC as a need for much substance. On to `C=C1COc2c(N3CCC(O)C3)c(F)cc3c(=O)c(C(=O)O)cn1c23` (centres unmarked) [Ia, 9-fluoro-10-(3-hydroxy-1-pyrrolidnyl)-3-methylene-7-oxo-2,3-dihydro-7H-pyrido(1,2,3-de)-1,4-benzoxazine-6-carboxylic acid], for which the MIC is not above 0.0063 µg/mL in the series with B. subtilis, ATCC-6633; 0.0125 µg/mL (≈ 0.0361 µM) with E. coli, NIHJ; 0.05 µg/mL (≈ 0.144 µM) against Ent. cloacae, 03400; 0.19 µg/mL (≈ 0.549 µM) in the series with K. pneumoniae, type 1; 0.05 µg/mL (≈ 0.144 µM) against Pr. mirabilis, IFO-3849; 0.025 µg/mL (≈ 0.0722 µM) in the series on Pr. vulgaris, 08602. In addition, the MIC came out at 0.78 µg/mL (≈ 2.25 µM) against Ps. aeruginosa, 32104; 0.19 µg/mL (≈ 0.549 µM) against Ps. aeruginosa, 32121; 0.78 µg/mL (≈ 2.25 µM) against Ps. aeruginosa, 32122; 0.78 µg/mL (≈ 2.25 µM) against Ps. aeruginosa, 32233; 0.78 µg/mL (≈ 2.25 µM) against Ps. aeruginosa, 32234; 0.05 µg/mL (≈ 0.144 µM) against S. aureus, 209 P. Also, the MIC with S. epidermidis, 56500 was determined as 0.19 µg/mL (≈ 0.549 µM); in the series on Ser. marcescens, 10104, 0.1 µg/mL (≈ 0.289 µM); with Sh. flexneri, 2a, 5503, 0.025 µg/mL (≈ 0.0722 µM); in [1], 0.39 µg/mL (≈ 1.13 µM); against Str. pyogenes, G-36, 0.78 µg/mL (≈ 2.25 µM). For the same molecule, in the series with Gram-positive bacteria, the “antibacterial activity against Gram-positive bacteria” value is “very strong antibacterial activity”.
What is called LD50 is the dose at which mortality reaches 50%. Lower therefore signals a more toxic substance. In turn, `C=C1COc2c(N3CCC(O)C3)c(F)cc3c(=O)c(C(=O)O)cn1c23` (centres unmarked) [Ia, sodium salt] showed an LD50 in [2] of 333 mg/kg.
Regarding `C=C1COc2c(N3CCC(N)C3)c(F)cc3c(=O)c(C(=O)O)cn1c23` (centres unmarked) [Ib, 10-(3-amino-1-pyrrolidinyl)-9-fluoro-3-methylene-7-oxo-2,3-dihydro-7H-pyrido(1,2,3-de)-1,4-benzoxazine-6-carboxylic acid], the MIC in the series with B. subtilis, ATCC-6633 is 0.05 µg/mL (≈ 0.145 µM); in the series with E. coli, NIHJ, 0.025 µg/mL (≈ 0.0724 µM); with Ent. cloacae, 03400, 0.025 µg/mL (≈ 0.0724 µM); in the series with K. pneumoniae, type 1 it was 0.05 µg/mL (≈ 0.145 µM); against Pr. mirabilis, IFO-3849, 0.025 µg/mL (≈ 0.0724 µM); in the series on Pr. vulgaris, 08602, 0.025 µg/mL (≈ 0.0724 µM). For the same molecule, the minimal inhibitory concentration (MIC) with Ps. aeruginosa, 32104 is 0.1 µg/mL (≈ 0.29 µM); with Ps. aeruginosa, 32121, 0.05 µg/mL (≈ 0.145 µM); in the series with Ps. aeruginosa, 32122 it was 0.1 µg/mL (≈ 0.29 µM); against Ps. aeruginosa, 32233, 0.19 µg/mL (≈ 0.55 µM); in the series with Ps. aeruginosa, 32234, 0.1 µg/mL (≈ 0.29 µM); in the series on S. aureus, 209 P, 0.1 µg/mL (≈ 0.29 µM). Further, the MIC with S. epidermidis, 56500 is 0.39 µg/mL (≈ 1.13 µM); against Ser. marcescens, 10104 it was 0.05 µg/mL (≈ 0.145 µM); against Sh. flexneri, 2a, 5503 it was 0.0125 µg/mL (≈ 0.0362 µM); in series [1] it was 0.78 µg/mL (≈ 2.26 µM); against Str. pyogenes, G-36 it was 0.78 µg/mL (≈ 2.26 µM). The “antibacterial activity against Pseudomonas aeruginosa” value with Pseudomonas aeruginosa is given as “very strong antibacterial activity”.
For the molecule `C=C1COc2c(N3CCC(N)C3)c(F)cc3c(=O)c(C(=O)O)cn1c23` (centres unmarked) [Ib, methanesulfonic acid addition salt], the LD50 in series [2] is more than 320 mg/kg.
